Experimental data from US7998965B2, “Glutamate aggrecanase inhibitors” (Wyeth LLC, priority 2005, dated 2011).
Read-outs that look alike come from different tables or passages of the source.

Tests used:
[1] = molecular target: T1, purified recombinant human Aggrecanase-1 (rAgg1) (Homo sapiens, UniProt O75173); assay: In vitro fluorescence screen for Aggrecanase-1 inhibitors; format: biochemical; conditions: read-out: Agg1 IC50
T1 sequence (O75173 213-837): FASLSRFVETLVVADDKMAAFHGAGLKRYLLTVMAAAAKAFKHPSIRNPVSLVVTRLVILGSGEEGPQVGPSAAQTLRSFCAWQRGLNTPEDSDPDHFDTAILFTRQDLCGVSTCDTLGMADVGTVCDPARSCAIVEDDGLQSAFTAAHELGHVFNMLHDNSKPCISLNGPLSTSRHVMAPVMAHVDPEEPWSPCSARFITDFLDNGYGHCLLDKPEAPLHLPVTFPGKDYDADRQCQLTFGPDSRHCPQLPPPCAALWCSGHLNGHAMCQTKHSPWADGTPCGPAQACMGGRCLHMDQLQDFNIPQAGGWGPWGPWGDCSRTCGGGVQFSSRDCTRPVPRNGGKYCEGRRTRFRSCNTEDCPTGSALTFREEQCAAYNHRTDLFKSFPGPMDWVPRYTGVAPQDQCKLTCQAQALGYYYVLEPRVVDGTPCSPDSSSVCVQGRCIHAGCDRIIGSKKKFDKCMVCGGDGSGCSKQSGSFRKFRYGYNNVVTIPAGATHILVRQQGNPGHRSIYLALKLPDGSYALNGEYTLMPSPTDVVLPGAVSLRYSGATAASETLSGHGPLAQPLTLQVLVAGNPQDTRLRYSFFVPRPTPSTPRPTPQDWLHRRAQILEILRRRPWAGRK

[2] = molecular target: T2, purified recombinant human Aggrecanase-2 (Ag2t-Phe628-Strep) (Homo sapiens, UniProt Q9UNA0); assay: In vitro fluorescence screen for Aggrecanase-2 inhibitors; format: biochemical; conditions: for IC50: read-out: Agg 2 IC50
T2 construct: the form used is denoted as Ag2t-Phe628-Strep (MW=41,737)
T2 sequence (Q9UNA0 262-628): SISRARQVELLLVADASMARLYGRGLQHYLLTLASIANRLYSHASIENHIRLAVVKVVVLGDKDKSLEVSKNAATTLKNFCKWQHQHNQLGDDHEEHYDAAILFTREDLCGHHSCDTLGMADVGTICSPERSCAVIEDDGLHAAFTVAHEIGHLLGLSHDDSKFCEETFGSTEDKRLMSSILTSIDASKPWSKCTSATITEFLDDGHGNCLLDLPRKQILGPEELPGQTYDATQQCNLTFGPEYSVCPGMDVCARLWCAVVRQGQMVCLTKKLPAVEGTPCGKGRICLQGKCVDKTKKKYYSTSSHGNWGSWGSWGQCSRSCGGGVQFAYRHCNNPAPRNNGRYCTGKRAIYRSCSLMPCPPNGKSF

IC50 ([1]; Table 2) | IC50 ([2]; Table 2) | IC50 ([1]; Table 3) | Structure (SMILES) | also measured
20000 nM | ~22000 nM |  | CC(C)(NC(=O)[C@H](CCC(=O)O)NC(=O)c1ccc2c(c1)C(=O)c1ccccc1-2)c1ccccc1 [Example 8MMMMM, N^1-(1-methyl-1-phenylethyl)-N^2-[(9-oxo-9H-fluoren-2-yl)carbonyl]-L-α-glutamine] | 
550 nM | 5100 nM |  | O=C(O)CC[C@H](NC(=O)c1ccc(-c2ccccc2)cc1)C(=O)N[C@H](CO)Cc1ccccc1 [Example 8MMMMMM, N-[(1S)-1-benzyl-2-hydroxyethyl]-N^2-(biphenyl-4-ylcarbonyl)-L-α-glutamine] | 
 |  | 198 nM | COc1cc(CNC(=O)[C@H](CCC(=O)O)NC(=O)c2ccc(-c3ccc(CBr)cc3)cc2)cc(OC)c1OC [Example 8MMMMMMM, N^2-{[4′-(bromomethyl)biphenyl-4-yl]carbonyl}-N-(3,4,5-trimethoxybenzyl)-L-α-glutamine] | IC50 ([2]; Table 3): 614 nM
1200 nM | 1890 nM |  | CC(C)(NC(=O)[C@H](CCC(=O)O)NC(=O)C1c2ccccc2-c2ccccc21)c1ccccc1 [Example 8NNNNN, N^2-(9H-fluoren-9-ylcarbonyl)-N^1-(1-methyl-1-phenylethyl)-L-α-glutamine] | 
 |  |  | O=C(O)CC[C@H](NC(=O)c1ccc(-c2ccccc2)cc1)C(=O)NCCC(c1ccccc1)c1ccccc1 [Example 8OOO, N^2-(biphenyl-4-ylcarbonyl)-N^1-(3,3-diphenylpropyl)-L-α-glutamine] | IC50 ([1]; Table 1): 280 nM; IC50 ([2]; Table 1): 1000 nM
> 50000 nM | > 200000 nM |  | CC(C)(NC(=O)[C@H](CCC(=O)O)NC(=O)c1cccc(Oc2ccccc2)c1)c1ccccc1 [Example 8OOOOO, N^1-(1-methyl-1-phenylethyl)-N^2-(3-phenoxybenzoyl)-L-α-glutamine] | 
 |  | < 30 nM | CC(C)(Cc1ccc(F)cc1)NC(=O)[C@H](CCC(=O)O)NC(=O)c1ccc(-c2ccco2)cc1 [Example 8OOOOOOO, N-[2-(4-fluorophenyl)-1,1-dimethylethyl]-N^2-[4-(2-furyl)benzoyl]-L-α-glutamine] | IC50 ([2]; Table 3): 100 to 400 nM
 |  | < 30 nM | CC(C)(Cc1ccccc1)NC(=O)[C@H](CCC(=O)O)NC(=O)c1ccc(-c2ccccc2)s1 [Example 8OOOOOOOO, N-(1,1-dimethyl-2-phenylethyl)-N^2-[(5-phenyl-2-thienyl)carbonyl]-L-α-glutamine] | IC50 ([2]; Table 3): 200 to 600 nM
157 nM | 2970 nM |  | C[C@H](NC(=O)[C@H](CCC(=O)O)NC(=O)c1ccc(-c2ccccc2)cc1)c1ccccc1 [Example 8PPPPP, N^2-(biphenyl-4-ylcarbonyl)-N^1-[(1S)-1-phenylethyl]-L-α-glutamine] | 
 |  | 3120 nM | Cc1cccc(CNC(=O)[C@H](CCC(=O)O)NC(=O)c2ccc(-c3ccc(CO)cc3)cc2)c1 [Example 8PPPPPPP, N^2-{[4′-(hydroxymethyl)biphenyl-4-yl]carbonyl}-N-(3-methylbenzyl)-L-α-glutamine] | inhibition at 16.7 µM ([2]; Table 3, at 16700 (nM), read-out: Agg 2 % at concentration): 48%
108 nM | 1160 nM |  | C[C@H](NC(=O)[C@H](CCC(=O)O)NC(=O)c1ccc2c(c1)Cc1ccccc1-2)c1ccccc1 [Example 8QQQQQ, N^2-(9H-fluoren-2-ylcarbonyl)-N^1-[(1S)-1-phenylethyl]-L-α-glutamine] | 
 |  |  | CCCCCNC(=O)[C@H](CCC(=O)O)NC(=O)c1ccc(-c2ccccc2)cc1 [Example 8RRR, N^2-(biphenyl-4-ylcarbonyl)-N^1-pentyl-L-α-glutamine] | IC50 ([1]; Table 1): 82 nM; IC50 ([2]; Table 1): 680 nM
129 nM | 2900 nM |  | C[C@H](NC(=O)[C@H](CCC(=O)O)NC(=O)c1ccc(-c2ccccc2)cc1)c1ccc(F)cc1 [Example 8RRRRR, N^2-(biphenyl-4-ylcarbonyl)-N1-[(1S)-1-(4-fluorophenyl)ethyl]-L-α-glutamine] | 

Structure (SMILES) | IC50 ([1]; Table 2) | IC50 ([2]; Table 2) | IC50 ([1]; Table 3) | also measured
CC(C)(Cc1ccc(F)cc1)NC(=O)[C@H](CCC(=O)O)NC(=O)c1ccc(-c2ccc3c(c2)CCO3)cc1 [Example 8RRRRRRR, N^2-[4-(2,3-dihydro-1-benzofuran-5-yl)benzoyl]-N-[2-(4-fluorophenyl)-1,1-dimethylethyl]-L-α-glutamine] |  |  | 70 to 210 nM | inhibition at 1.2 µM ([2]; read-out: Agg 2 % at concentration): 48%
